This note sets out measurements from ChEMBL document CHEMBL2311455, “Combining QSAR classification models for predictive modeling of human monoamine oxidase inhibitors” (Eur J Med Chem, 2013).

For one assay, the species on record is Homo sapiens. In words: Selectivity index, difference in pIC50 for human recombinant MAOB and pIC50 for human recombinant MAOA.
For `CCCOC(=O)c1coc2ccccc2c1=O`, the pSI was more than 1.25.

With `O=c1cc(CO)oc2ccccc12`, the pSI amounted to 0.

Regarding `CCOC(=O)c1cc(=O)c2cc(Cl)ccc2o1`, the pSI was more than 0.41.

Consider `CCCOC(=O)c1cc(=O)c2ccccc2o1`, for which the pSI was more than 0.45.

`CN(C(=O)c1cc(=O)c2ccccc2o1)c1ccccc1`: the pSI is 0.

`O=c1c(CO)coc2ccccc12`: the pSI is more than 0.42.

For the molecule `CCOC(=O)c1cc(=O)c2ccccc2o1`, the pSI stood at 0.

Consider `O=C(O)c1coc2ccc(Cl)cc2c1=O`, for which the pSI was less than -1.

Turning to `CCOC(=O)c1coc2ccccc2c1=O`, the pSI is more than 1.72.

Turning to `O=C(Nc1ccc(O)c(O)c1)c1cc(=O)c2ccccc2o1`, the pSI was -1.15.

For the molecule `O=C(O)c1cc(=O)c2cc(Cl)ccc2o1`, the pSI was less than -1.

The target in a further assay is T1, Amine oxidase [flavin-containing] B (Homo sapiens, UniProt P27338).
T1 sequence (P27338 whole entry): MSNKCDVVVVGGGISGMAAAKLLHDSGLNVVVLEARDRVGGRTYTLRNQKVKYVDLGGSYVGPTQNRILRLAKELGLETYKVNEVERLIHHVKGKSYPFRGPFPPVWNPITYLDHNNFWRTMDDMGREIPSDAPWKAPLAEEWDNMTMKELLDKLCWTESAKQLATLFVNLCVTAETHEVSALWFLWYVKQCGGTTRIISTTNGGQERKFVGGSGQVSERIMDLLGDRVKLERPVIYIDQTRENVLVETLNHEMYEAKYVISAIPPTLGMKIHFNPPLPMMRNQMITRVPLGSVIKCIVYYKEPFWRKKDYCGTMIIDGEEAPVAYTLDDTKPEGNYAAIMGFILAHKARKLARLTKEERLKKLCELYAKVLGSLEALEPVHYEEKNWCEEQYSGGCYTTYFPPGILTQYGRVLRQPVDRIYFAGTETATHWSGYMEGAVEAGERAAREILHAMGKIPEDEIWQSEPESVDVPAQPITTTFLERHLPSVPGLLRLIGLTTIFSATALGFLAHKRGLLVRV
Kind of assay: Inhibition of human recombinant MAOB.
By IC50 is commonly meant the concentration that inhibits the measured activity by half. Turning to `CCCOC(=O)c1coc2ccccc2c1=O`, the IC50 was 5.62 µM.

As to `O=c1cc(CO)oc2ccccc12`, the 50% inhibitory concentration (IC50) is more than 100 µM.

Turning to `CCOC(=O)c1cc(=O)c2cc(Cl)ccc2o1`, the IC50 was 38.9 µM.

Regarding `CCCOC(=O)c1cc(=O)c2ccccc2o1`, the IC50 was 35.5 µM.

Regarding `CN(C(=O)c1cc(=O)c2ccccc2o1)c1ccccc1`, the IC50 was more than 100 µM.

For the molecule `O=c1c(CO)coc2ccccc12`, the IC50 was 38 µM.

For the molecule `CCOC(=O)c1cc(=O)c2ccccc2o1`, the IC50 was more than 100 µM.

`O=C(O)c1coc2ccc(Cl)cc2c1=O`: the IC50 was more than 1000 µM.

Turning to `CCOC(=O)c1coc2ccccc2c1=O`, the IC50 was 1.91 µM.

Turning to `O=C(O)c1cc(=O)c2cc(Cl)ccc2o1`, the 50% inhibitory concentration (IC50) is more than 1000 µM.

A further assay has as its target T2, Amine oxidase [flavin-containing] A (Homo sapiens, UniProt P21397).
T2 sequence (P21397 whole entry): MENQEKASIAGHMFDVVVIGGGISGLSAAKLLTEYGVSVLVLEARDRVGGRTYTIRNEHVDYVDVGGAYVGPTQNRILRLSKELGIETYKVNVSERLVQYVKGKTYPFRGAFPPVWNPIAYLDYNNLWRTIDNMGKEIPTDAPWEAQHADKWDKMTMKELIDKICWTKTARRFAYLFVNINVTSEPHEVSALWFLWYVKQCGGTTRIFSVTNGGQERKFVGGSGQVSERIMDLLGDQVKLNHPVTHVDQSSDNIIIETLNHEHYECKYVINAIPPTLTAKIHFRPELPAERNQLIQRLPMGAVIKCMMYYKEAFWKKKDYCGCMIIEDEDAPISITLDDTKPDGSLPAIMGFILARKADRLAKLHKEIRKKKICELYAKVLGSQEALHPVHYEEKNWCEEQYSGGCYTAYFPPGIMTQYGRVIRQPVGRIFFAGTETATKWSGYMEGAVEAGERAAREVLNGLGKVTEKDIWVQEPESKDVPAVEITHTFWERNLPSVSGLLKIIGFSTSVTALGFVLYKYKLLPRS
In words: Inhibition of human recombinant MAOA.
For `CCCOC(=O)c1coc2ccccc2c1=O`, the IC50 is more than 100 µM.

For `O=c1cc(CO)oc2ccccc12`, the half-maximal inhibitory concentration (IC50) was more than 100 µM.

`CCOC(=O)c1cc(=O)c2cc(Cl)ccc2o1`: the IC50 is more than 100 µM.

Turning to `CCCOC(=O)c1cc(=O)c2ccccc2o1`, the half-inhibitory concentration (IC50) is more than 100 µM.

For the molecule `CN(C(=O)c1cc(=O)c2ccccc2o1)c1ccccc1`, the IC50 was more than 100 µM.

Regarding `O=c1c(CO)coc2ccccc12`, the IC50 is more than 100 µM.

Take `CCOC(=O)c1cc(=O)c2ccccc2o1`: the IC50 was more than 100 µM.

Consider `O=C(O)c1coc2ccc(Cl)cc2c1=O`, for which the IC50 was more than 100 µM.

Consider `CCOC(=O)c1coc2ccccc2c1=O`, for which the IC50 is more than 100 µM.

`O=C(O)c1cc(=O)c2cc(Cl)ccc2o1`: the IC50 was more than 100 µM.
